Reference: patent US9896512B2, “Antitumor peptide derived from a complementarity determining region of a humanized monoclonal antibody to NAP12B transporter” (Recepta Biopharma S.A., priority 2010, dated 2018)
Positions of bridges follow the written chain, without caps; N, C: chain ends. Non-standard residues stand in square brackets, D forms with d. No end group written: not given here. dCit = NC(=O)NCCC[C@@H](N)C(=O)O

Assays:
[1] = tested on: melanoma B16F10-Nex2 cells; assay: Alanine scanning series cell adhesion assay (MTT after trypsin-EDTA); format: cell-based, murine; conditions: 1 mM peptide, 24 hours
Method: The peptide RB10 (SEQ ID NO: 9) was engineered to replace each amino acid by alanine using Ala-scan methodology, and thus help evaluate the role of each amino acid on biological effect, specifically on the hyper-adherence observed with 1 mM peptide.
For this purpose, viable melanoma B16F10-Nex2 cells (1×10^4)/well were distributed on a 96-well culture plate and incubated for 4 hours. Fresh media containing 1 mM of the alanine-scanning series for RB10 was added and incubated for 24 hours. Treated cells were detached with 30 μl/well of trypsin-EDTA for five minutes at 37° C. and gently washed with PBS. Cells were incubated for 4 hours with 0.5 mg/mL of MTT [3-(4,5-Dimethylthiazol-2-yl)-2,5-diphenyltetrazolium bromide] in fresh media and the formazan crystals were solubilized adding 1 volume of a 10% SDS solution overnight. Intensity was measured using a plate reader at 570 nm. […] The 100% value for each peptide represented the treated cells that had not been trypsinized.

[2] = tested on: B16F10-Nex2 melanoma cells; assay: Cell migration, wound healing assay; format: cell-based, murine; conditions: peptide 500 μM, 24 hours after wounding
Method: For the migration studies, 5×10^5 or 10^6 cells were distributed on 6-well plates and let them to adhere for 2 hours at 37° C./5% CO2. The culture medium was changed and the peptide was added at 500 μM overnight. The cell monolayer was “wounded” with a P1000 tip and incubated for 24 hours. Images of untreated cells (control) and peptide treated cells were captured with a JENOPTIK camera. Cell numbers (nuclei) were determined using the Pixcavator software version 5.0.
Viable B16F10-Nex2 cells (5×105)/well were distributed on a 6-well culture plate and incubated overnight at 37° C. in a humidified chamber with 5% CO2. A P1000 tip was used for wounding the cell monolayer and the image was immediately captured (0 hour) using a camera (Jenoptik) with the software Progres 2.8. After 24 hours a new image of the same field was obtained and recorded (24 hours).
Viable B16F10-Nex2 cells (3×10^5)/well were distributed in a 12-well culture plate and incubated for 4 hours at 37° C. in a humidified chamber with 5% CO2. Fresh medium containing RB10 (SEQ ID NO: 9) at different concentrations was added to the wells and incubated again for 4 hours. The monolayer wounding was performed as described above in Example 12, and images obtained accordingly. After 24 hours a new image in the same field was obtained and recorded (24 hours). […] Magnification ×100.

Row | Substance | trypsin/EDTA-resistant cell adherence [1] | inhibition of cell migration (words) [2]
1 | AARGETARATFAYWGQG-NH2 [RB10 A1] | normally detached | non-inhibition
2 | C(dA)RGETA(dCit)AT(dF)AYWGQ(dA)C-NH2 (C[dA]RGETA[dCit]AT[dF]AYWGQ[dA]C-NH2; disulfide 1-18; N-terminus assumed; SMILES C[C@@H]1NC(=O)[C@H]([C@@H](C)O)NC(=O)[C@H](CCC(=O)O)NC(=O)CNC(=O)[C@H](CCCNC(=N)N)NC(=O)[C@@H](C)NC(=O)[C@@H](N)CSSC[C@@H](C(N)=O)NC(=O)[C@@H](C)NC(=O)[C@H](CCC(N)=O)NC(=O)CNC(=O)[C@H](Cc2c[nH]c3ccccc23)NC(=O)[C@H](Cc2ccc(O)cc2)NC(=O)[C@H](C)NC(=O)[C@@H](Cc2ccccc2)NC(=O)[C@H]([C@@H](C)O)NC(=O)[C@H](C)NC(=O)[C@@H](CCCNC(N)=O)NC1=O) [RB9 M2] | – | partial inhibition
3 | C(dA)RGETA(dCit)ATFAYWGQ(dA)-NH2 (C[dA]RGETA[dCit]ATFAYWGQ[dA]-NH2; N-terminus assumed; SMILES C[C@H](NC(=O)[C@H](Cc1ccccc1)NC(=O)[C@@H](NC(=O)[C@H](C)NC(=O)[C@@H](CCCNC(N)=O)NC(=O)[C@H](C)NC(=O)[C@@H](NC(=O)[C@H](CCC(=O)O)NC(=O)CNC(=O)[C@H](CCCNC(=N)N)NC(=O)[C@@H](C)NC(=O)[C@@H](N)CS)[C@@H](C)O)[C@@H](C)O)C(=O)N[C@@H](Cc1ccc(O)cc1)C(=O)N[C@@H](Cc1c[nH]c2ccccc12)C(=O)NCC(=O)N[C@@H](CCC(N)=O)C(=O)N[C@H](C)C(N)=O) [RB10 M4] | – | partial inhibition
4 | C(dA)RGETA(dCit)ATFAYWGQ(dA)C-NH2 (C[dA]RGETA[dCit]ATFAYWGQ[dA]C-NH2; disulfide 1-18; N-terminus assumed; SMILES C[C@@H]1NC(=O)[C@H](Cc2ccccc2)NC(=O)[C@H]([C@@H](C)O)NC(=O)[C@H](C)NC(=O)[C@@H](CCCNC(N)=O)NC(=O)[C@H](C)NC(=O)[C@H]([C@@H](C)O)NC(=O)[C@H](CCC(=O)O)NC(=O)CNC(=O)[C@H](CCCNC(=N)N)NC(=O)[C@@H](C)NC(=O)[C@@H](N)CSSC[C@@H](C(N)=O)NC(=O)[C@@H](C)NC(=O)[C@H](CCC(N)=O)NC(=O)CNC(=O)[C@H](Cc2c[nH]c3ccccc23)NC(=O)[C@H](Cc2ccc(O)cc2)NC1=O) [RB9 M1] | – | partial inhibition
5 | C(dA)RGETARATFAYC-NH2 (C[dA]RGETARATFAYC-NH2; disulfide 1-14; N-terminus assumed; SMILES C[C@@H]1NC(=O)[C@H](CCCNC(=N)N)NC(=O)[C@H](C)NC(=O)[C@H]([C@@H](C)O)NC(=O)[C@H](CCC(=O)O)NC(=O)CNC(=O)[C@H](CCCNC(=N)N)NC(=O)[C@@H](C)NC(=O)[C@@H](N)CSSC[C@@H](C(N)=O)NC(=O)[C@H](Cc2ccc(O)cc2)NC(=O)[C@H](C)NC(=O)[C@H](Cc2ccccc2)NC(=O)[C@H]([C@@H](C)O)NC1=O) [RB9 M3] | – | partial inhibition
6 | C(dA)RGETARATFAYWGQGC-NH2 [RB9 M5] | – | partial inhibition
7 | CAAGETARATFAYWGQG-NH2 [RB10 A3] | normally detached | partial inhibition
8 | CARAETARATFAYWGQG-NH2 [RB10 A4] | high trypsin/EDTA-resistant cell adherence | partial inhibition
9 | CARGATARATFAYWGQG-NH2 [RB10 A5] | normally detached | –
10 | CARGEAARATFAYWGQG-NH2 [RB10 A6] | high trypsin/EDTA-resistant cell adherence | partial inhibition
11 | CARGETA(dCit)AT(dF)AYWGQ(dA)-NH2 (CARGETA[dCit]AT[dF]AYWGQ[dA]-NH2; N-terminus assumed; SMILES C[C@H](NC(=O)[C@@H](NC(=O)[C@H](CCC(=O)O)NC(=O)CNC(=O)[C@H](CCCNC(=N)N)NC(=O)[C@H](C)NC(=O)[C@@H](N)CS)[C@@H](C)O)C(=O)N[C@H](CCCNC(N)=O)C(=O)N[C@@H](C)C(=O)N[C@H](C(=O)N[C@H](Cc1ccccc1)C(=O)N[C@@H](C)C(=O)N[C@@H](Cc1ccc(O)cc1)C(=O)N[C@@H](Cc1c[nH]c2ccccc12)C(=O)NCC(=O)N[C@@H](CCC(N)=O)C(=O)N[C@H](C)C(N)=O)[C@@H](C)O) [RB10 M1] | – | partial inhibition
12 | CARGETA(dCit)ATFAYWGQGC-NH2 [RB9 M4] | – | partial inhibition
13 | CARGETAAATFAYWGQG-NH2 [RB10 A8] | normally detached | partial inhibition
14 | CFIARAGWYATEARGGQC-NH2 [RB9 Sc3] | – | partial inhibition
15 | CGTFEYRAQAGWAGRTA-NH2 [RB10 Scramble] | – | partial inhibition
16 | CGTFEYRAQAGWAGRTAC-NH2 (disulfide 1-18; N-terminus assumed; SMILES C[C@@H]1NC(=O)[C@H](Cc2c[nH]c3ccccc23)NC(=O)CNC(=O)[C@H](C)NC(=O)[C@H](CCC(N)=O)NC(=O)[C@H](C)NC(=O)[C@H](CCCNC(=N)N)NC(=O)[C@H](Cc2ccc(O)cc2)NC(=O)[C@H](CCC(=O)O)NC(=O)[C@H](Cc2ccccc2)NC(=O)[C@H]([C@@H](C)O)NC(=O)CNC(=O)[C@@H](N)CSSC[C@@H](C(N)=O)NC(=O)[C@H](C)NC(=O)[C@H]([C@@H](C)O)NC(=O)[C@H](CCCNC(=N)N)NC(=O)CNC1=O) [RB9 Scramble] | – | partial inhibition
17 | YWCRAAFTTEAGRACQGG-NH2 (disulfide 3-15; N-terminus assumed; SMILES C[C@@H]1NC(=O)[C@H](C)NC(=O)[C@H](CCCNC(=N)N)NC(=O)[C@@H](NC(=O)[C@H](Cc2c[nH]c3ccccc23)NC(=O)[C@@H](N)Cc2ccc(O)cc2)CSSC[C@@H](C(=O)N[C@@H](CCC(N)=O)C(=O)NCC(=O)NCC(N)=O)NC(=O)[C@H](C)NC(=O)[C@H](CCCNC(=N)N)NC(=O)CNC(=O)[C@H](C)NC(=O)[C@H](CCC(=O)O)NC(=O)[C@H]([C@@H](C)O)NC(=O)[C@H]([C@@H](C)O)NC(=O)[C@H](Cc2ccccc2)NC1=O) [RB9 Sc2] | – | partial inhibition
